We go through 14 compounds from ChEMBL document CHEMBL4014348, “Design, Multicomponent Synthesis, and Anticancer Activity of a Focused Histone Deacetylase (HDAC) Inhibitor Library with Peptoid-Based Cap Groups” (J Med Chem, 2017).

The test system of one assay is A2780cisR. Put plainly: Cytotoxicity against human A2780cisR cells assessed as cell survival after 72 hrs by MTT assay. It counts as functional, cell-based. (In general: Formazan colour is commonly taken as a measure of viable cells.)
For assay [1], the target named is T1, Histone deacetylase 1/2/3/6 (Homo sapiens, UniProt Q13547+O15379+Q9UBN7+Q92769). Briefly: Inhibition of HDAC1/2/3/6 in human Cal27 cells using Boc-Lys(epsilon-Ac)-AMC as substrate preincubated for 18 hrs followed by substrate addition measured after 3 hrs by fluorescence assay. Format: cell-based.
Assay [2] deals with T1, Histone deacetylase 1/2/3/6. Briefly: Inhibition of HDAC1/2/3/6 in human Cal27CisR cells using Boc-Lys(epsilon-Ac)-AMC as substrate preincubated for 18 hrs followed by substrate addition measured after 3 hrs by fluorescence assay. It counts as cell-based.
Another assay has as its system A2780. Briefly: Cytotoxicity against human A2780 cells assessed as cell survival after 72 hrs by MTT assay. The settings on record: A2780, 72 h. It counts as functional, cell-based.
Assay [3] addresses T1, Histone deacetylase 1/2/3/6. Briefly: Inhibition of HDAC1/2/3/6 in human A2780 cells using Boc-Lys(epsilon-Ac)-AMC as substrate preincubated for 18 hrs followed by substrate addition measured after 3 hrs by fluorescence assay. It counts as cell-based.
Assay [4] is described as follows: Cytotoxicity against human Cal27CisR cells assessed as cell survival after 72 hrs by MTT assay. It counts as functional, cell-based.
A further assay has as its system CAL-27. Put plainly: Cytotoxicity against human CAL27 cells assessed as cell survival after 72 hrs by MTT assay. The settings on record: CAL-27, 72 h. Format: functional, cell-based.
Assay [5] addresses T1, Histone deacetylase 1/2/3/6. Briefly: Inhibition of HDAC1/2/3/6 in human A2780cisR cells using Boc-Lys(epsilon-Ac)-AMC as substrate preincubated for 18 hrs followed by substrate addition measured after 3 hrs by fluorescence assay. It counts as cell-based.
The target in the next assay is Histone deacetylase 1 (Homo sapiens, UniProt Q13547). Briefly: Inhibition of C-terminal FLAG/His-tagged recombinant human HDAC1 expressed in baculovirus infected Sf9 insect cells using Z-(Ac)Lys-AMC as substrate measured after 90 mins by fluorescence assay.
Histone deacetylase 1, sequence (Q13547 whole entry): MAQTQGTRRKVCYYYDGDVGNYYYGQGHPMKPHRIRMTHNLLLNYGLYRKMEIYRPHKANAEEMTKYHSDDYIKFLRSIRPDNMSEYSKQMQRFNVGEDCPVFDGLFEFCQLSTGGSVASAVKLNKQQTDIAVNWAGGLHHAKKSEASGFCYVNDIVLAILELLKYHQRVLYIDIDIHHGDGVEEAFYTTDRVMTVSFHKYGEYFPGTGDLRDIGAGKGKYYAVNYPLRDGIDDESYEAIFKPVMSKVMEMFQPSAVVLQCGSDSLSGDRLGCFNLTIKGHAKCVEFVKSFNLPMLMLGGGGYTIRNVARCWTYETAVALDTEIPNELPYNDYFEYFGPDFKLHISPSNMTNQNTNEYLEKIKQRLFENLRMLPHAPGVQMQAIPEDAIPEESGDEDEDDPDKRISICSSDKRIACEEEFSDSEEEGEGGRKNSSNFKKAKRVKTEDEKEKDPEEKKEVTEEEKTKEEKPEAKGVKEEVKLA
Another assay deals with Histone deacetylase 2 (Homo sapiens, UniProt Q92769). Put plainly: Inhibition of full length human recombinant C-terminal FLAG-tagged HDAC2 expressed in baculovirus infected Sf9 insect cells using Boc-Lys(epsilon-Ac)-AMC as substrate measured after 90 mins by fluorescence assay. Format: cell-based.
Histone deacetylase 2, sequence (Q92769 whole entry): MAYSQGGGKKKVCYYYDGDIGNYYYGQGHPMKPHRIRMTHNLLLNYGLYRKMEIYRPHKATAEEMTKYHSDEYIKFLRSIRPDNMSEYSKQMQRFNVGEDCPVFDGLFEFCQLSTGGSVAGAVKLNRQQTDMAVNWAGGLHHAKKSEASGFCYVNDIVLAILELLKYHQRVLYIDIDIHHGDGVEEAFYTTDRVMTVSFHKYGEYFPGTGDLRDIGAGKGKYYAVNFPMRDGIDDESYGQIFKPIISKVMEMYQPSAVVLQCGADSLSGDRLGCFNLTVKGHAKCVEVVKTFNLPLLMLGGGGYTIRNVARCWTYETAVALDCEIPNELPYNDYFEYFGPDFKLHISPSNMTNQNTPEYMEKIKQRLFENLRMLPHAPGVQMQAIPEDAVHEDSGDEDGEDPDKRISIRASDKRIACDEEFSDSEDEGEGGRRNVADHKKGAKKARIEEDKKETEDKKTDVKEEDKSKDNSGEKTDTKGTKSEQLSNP
Assay [6] has as its target T2, Protein deacetylase HDAC6 (Homo sapiens, UniProt Q9UBN7).
T2 sequence (Q9UBN7 whole entry): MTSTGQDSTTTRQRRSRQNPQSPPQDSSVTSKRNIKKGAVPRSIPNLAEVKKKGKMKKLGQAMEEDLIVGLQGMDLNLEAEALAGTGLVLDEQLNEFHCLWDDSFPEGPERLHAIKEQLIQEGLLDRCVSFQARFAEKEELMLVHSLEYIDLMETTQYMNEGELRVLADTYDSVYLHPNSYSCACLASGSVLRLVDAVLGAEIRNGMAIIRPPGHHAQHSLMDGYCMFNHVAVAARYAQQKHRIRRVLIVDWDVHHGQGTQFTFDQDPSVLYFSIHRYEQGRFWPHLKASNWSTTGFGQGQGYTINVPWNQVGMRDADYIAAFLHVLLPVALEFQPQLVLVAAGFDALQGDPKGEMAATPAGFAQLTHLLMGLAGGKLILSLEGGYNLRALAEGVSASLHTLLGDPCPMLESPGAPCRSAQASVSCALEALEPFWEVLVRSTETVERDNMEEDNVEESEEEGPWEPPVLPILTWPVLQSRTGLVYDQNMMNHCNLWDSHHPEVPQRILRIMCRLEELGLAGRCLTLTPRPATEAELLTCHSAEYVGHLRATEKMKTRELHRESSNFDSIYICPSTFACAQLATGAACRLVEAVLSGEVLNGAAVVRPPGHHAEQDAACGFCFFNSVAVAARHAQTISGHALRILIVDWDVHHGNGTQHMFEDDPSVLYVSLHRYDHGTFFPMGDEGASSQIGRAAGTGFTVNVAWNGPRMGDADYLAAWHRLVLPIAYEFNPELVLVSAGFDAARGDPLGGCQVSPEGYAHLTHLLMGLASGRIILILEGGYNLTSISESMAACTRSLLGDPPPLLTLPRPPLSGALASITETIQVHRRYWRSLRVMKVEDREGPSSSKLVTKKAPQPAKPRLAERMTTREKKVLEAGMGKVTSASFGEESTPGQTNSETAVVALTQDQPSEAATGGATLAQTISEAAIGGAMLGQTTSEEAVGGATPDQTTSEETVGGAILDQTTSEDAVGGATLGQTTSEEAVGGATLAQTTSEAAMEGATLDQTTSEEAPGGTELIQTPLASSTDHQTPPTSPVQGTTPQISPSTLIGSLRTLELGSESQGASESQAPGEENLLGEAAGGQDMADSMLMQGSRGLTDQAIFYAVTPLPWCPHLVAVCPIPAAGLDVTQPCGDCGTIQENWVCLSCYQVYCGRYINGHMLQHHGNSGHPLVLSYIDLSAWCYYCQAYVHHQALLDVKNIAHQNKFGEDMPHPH
Put plainly: Inhibition of N-terminal GST-tagged recombinant human HDAC6 expressed in baculovirus infected Sf9 insect cells using Z-(Ac)Lys-AMC as substrate measured after 90 mins by fluorescence assay.

The target of assay [7] is Histone deacetylase 3/Nuclear receptor corepressor 2 (HDAC3/NCoR2) (Homo sapiens, UniProt O15379). Put plainly: Inhibition of full length human recombinant C-terminal His-tagged HDAC3/NcoR2 expressed in baculovirus infected Sf9 insect cells using Boc-Lys(epsilon-Ac)-AMC as substrate measured after 90 mins by fluorescence assay.
Histone deacetylase 3/Nuclear receptor corepressor 2 (HDAC3/NCoR2), sequence (O15379 whole entry): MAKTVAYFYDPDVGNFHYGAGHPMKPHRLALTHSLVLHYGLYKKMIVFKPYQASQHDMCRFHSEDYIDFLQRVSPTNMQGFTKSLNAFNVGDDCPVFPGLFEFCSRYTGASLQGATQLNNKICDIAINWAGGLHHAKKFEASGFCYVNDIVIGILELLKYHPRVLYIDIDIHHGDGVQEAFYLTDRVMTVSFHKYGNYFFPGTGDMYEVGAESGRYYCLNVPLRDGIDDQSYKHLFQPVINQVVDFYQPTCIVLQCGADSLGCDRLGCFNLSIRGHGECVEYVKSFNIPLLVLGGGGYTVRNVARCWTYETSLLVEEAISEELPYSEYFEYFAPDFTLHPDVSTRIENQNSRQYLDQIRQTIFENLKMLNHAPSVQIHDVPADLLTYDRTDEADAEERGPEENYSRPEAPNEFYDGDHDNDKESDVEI
Histone deacetylase 3/Nuclear receptor corepressor 2 (HDAC3/NCoR2), sequence (Q9Y618 whole entry, further chain): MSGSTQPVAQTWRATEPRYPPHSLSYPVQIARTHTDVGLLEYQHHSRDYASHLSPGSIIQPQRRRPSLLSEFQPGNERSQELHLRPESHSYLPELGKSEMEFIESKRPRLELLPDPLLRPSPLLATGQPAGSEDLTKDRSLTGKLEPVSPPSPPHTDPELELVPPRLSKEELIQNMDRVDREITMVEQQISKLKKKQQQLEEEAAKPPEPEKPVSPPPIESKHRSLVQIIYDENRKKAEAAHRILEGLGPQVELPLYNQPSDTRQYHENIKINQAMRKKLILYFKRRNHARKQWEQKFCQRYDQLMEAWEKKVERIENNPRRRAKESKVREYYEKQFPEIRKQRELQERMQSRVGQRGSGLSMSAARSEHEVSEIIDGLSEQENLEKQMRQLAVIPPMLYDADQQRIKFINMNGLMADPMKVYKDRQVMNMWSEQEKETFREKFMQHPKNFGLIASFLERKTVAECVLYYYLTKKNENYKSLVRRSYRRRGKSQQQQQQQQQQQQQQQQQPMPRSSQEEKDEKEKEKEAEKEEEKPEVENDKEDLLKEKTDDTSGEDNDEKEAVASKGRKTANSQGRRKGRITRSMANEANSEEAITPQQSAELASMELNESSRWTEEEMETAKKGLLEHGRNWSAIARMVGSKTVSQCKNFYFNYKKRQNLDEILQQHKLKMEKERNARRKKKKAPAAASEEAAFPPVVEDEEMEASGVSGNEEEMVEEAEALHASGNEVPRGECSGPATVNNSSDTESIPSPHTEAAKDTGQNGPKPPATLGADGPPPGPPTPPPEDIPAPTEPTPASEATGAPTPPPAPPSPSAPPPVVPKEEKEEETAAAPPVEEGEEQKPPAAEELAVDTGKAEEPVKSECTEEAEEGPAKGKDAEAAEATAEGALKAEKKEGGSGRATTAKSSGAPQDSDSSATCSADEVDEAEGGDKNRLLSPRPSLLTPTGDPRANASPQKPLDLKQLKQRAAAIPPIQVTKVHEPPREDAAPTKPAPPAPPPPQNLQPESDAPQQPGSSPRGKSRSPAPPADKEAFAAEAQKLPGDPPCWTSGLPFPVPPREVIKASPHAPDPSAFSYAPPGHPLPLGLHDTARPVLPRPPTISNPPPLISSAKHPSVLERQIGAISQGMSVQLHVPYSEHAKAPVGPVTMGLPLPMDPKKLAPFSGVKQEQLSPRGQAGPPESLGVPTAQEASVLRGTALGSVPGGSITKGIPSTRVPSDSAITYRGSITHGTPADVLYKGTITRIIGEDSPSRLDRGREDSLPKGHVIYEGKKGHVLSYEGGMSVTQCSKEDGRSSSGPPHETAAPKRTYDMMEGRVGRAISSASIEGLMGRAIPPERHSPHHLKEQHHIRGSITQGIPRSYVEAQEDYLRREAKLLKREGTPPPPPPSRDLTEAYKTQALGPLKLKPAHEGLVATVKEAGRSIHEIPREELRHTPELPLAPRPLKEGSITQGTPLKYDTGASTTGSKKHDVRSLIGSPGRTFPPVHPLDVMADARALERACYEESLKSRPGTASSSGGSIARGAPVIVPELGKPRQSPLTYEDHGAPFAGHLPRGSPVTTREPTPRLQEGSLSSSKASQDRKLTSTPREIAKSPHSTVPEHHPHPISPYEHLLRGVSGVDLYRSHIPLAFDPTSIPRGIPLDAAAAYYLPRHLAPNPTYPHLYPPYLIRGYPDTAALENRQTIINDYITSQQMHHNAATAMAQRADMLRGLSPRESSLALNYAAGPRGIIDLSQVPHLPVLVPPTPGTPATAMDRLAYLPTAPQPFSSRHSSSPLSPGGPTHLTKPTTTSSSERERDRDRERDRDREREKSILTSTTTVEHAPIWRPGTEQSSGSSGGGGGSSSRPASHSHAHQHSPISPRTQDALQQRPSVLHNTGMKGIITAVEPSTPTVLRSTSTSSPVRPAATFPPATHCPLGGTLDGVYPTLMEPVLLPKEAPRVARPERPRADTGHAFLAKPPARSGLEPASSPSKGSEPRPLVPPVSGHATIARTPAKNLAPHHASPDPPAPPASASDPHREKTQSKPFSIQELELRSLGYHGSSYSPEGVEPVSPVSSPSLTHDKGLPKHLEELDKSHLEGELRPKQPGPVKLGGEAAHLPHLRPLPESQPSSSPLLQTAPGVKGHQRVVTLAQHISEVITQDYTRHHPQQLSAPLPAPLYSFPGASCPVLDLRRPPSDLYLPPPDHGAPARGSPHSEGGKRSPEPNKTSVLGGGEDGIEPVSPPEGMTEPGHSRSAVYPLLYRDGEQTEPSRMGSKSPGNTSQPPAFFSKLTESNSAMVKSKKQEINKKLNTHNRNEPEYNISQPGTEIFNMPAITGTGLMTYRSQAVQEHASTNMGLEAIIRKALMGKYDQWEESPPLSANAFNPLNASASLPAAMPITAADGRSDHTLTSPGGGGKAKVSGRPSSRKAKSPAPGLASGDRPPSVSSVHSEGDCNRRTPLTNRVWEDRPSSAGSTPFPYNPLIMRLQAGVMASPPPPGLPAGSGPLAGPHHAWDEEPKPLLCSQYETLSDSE
The target of another assay is T3, Histone deacetylase 8 (Homo sapiens, UniProt Q9BY41).
T3 sequence (Q9BY41 whole entry): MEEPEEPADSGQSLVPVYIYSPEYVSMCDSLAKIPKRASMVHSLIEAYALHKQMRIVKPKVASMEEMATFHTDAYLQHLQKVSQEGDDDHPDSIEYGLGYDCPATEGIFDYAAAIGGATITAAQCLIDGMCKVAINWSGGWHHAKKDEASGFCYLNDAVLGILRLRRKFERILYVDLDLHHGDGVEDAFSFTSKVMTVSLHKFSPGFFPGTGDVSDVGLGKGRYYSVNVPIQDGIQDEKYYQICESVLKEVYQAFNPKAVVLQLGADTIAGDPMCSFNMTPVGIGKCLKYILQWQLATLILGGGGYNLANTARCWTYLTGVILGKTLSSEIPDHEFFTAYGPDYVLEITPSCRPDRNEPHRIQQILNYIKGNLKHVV
Briefly: Inhibition of human recombinant HDAC8 expressed in Escherichia coli using Z-L-Lys(epsilon-trifluoroacetyl)-AMC as substrate measured after 90 mins by fluorescence assay.

For the compound `O=C(CCCCCN(C(=O)c1ccccc1)C1(C(=O)NC2CCCCC2)CCCCC1)NO`, the 50% inhibitory concentration (IC50) turned out to be 50.5 µM with A2780cisR; 14.3 µM in [1]; 10.2 µM in [2]; 42.6 µM in the assay with A2780; 13.4 µM in assay [3]; 77.5 µM in assay [4]. Further, the values for the concentration for half-maximal inhibition (IC50) (in the assay with CAL-27; in [5]) were 44.1 µM and 10.1 µM, respectively.

In the case of `CN(C)c1ccc(C(=O)N(CCCCCC(=O)NO)C(C)(C)C(=O)NC2CCCCC2)cc1`, the half-inhibitory concentration (IC50) stood at 107 µM in the assay with A2780cisR; 18.2 µM in [1]; 28.8 µM in assay [2]; 68.5 µM in the assay on A2780; 24.5 µM in assay [3]; 46.1 µM in assay [4]. In addition, the results for the half-maximal inhibitory concentration (IC50) (with CAL-27; in assay [5]) were 47.7 µM and 30.8 µM, respectively.

As for `CN(C)c1ccc(C(=O)N(CCCCCC(=O)NO)CC(=O)NC2CCCCC2)cc1`, the concentration for half-maximal inhibition (IC50) in the assay on A2780cisR turned out to be 3.31 µM; in assay [1] it was 1.4 µM; in [2] it was 1.52 µM; in the assay on A2780 it was 1.54 µM; in [3], 1.42 µM; in assay [4], 35.5 µM. For the same compound, the values for the IC50 (with CAL-27; in assay [5]) were 2.97 µM and 1.9 µM, respectively.

For the compound `CC(C)(C(=O)NC1CCCCC1)N(CCCCCC(=O)NO)C(=O)c1ccccc1`, the IC50 with A2780cisR was 281 µM; in [1], 26.2 µM; in assay [2], 43 µM; with A2780, 295 µM; in assay [3], 37.9 µM; in assay [4], 4.07 µM. Further, the IC50 in the assay with CAL-27 was 66.9 µM; in assay [5] it was 44.9 µM.

As for `Cc1ccc(NC(=O)CN(CCCCCC(=O)NO)C(=O)c2ccc(N(C)C)cc2)cc1`, the concentration for half-maximal inhibition (IC50) amounted to 1.61 µM in the assay with A2780cisR; 0.37 µM in assay [1]; 0.49 µM in assay [2]; 0.0964 µM at Histone deacetylase 1; 0.146 µM on Histone deacetylase 2; 0.4 µM with A2780. The half-maximal inhibitory concentration (IC50) in [6] amounted to 0.106 µM; in assay [3], 0.66 µM; in assay [7] it was 0.016 µM; in [4], 0.6 µM; in the assay on CAL-27, 0.53 µM; in assay [5], 0.68 µM. Also, the IC50 at Histone deacetylase 8 was determined as 6.76 µM.

As to `CC(C)(C)NC(=O)C(C)(C)N(CCCCCC(=O)NO)C(=O)c1ccccc1`, the concentration for half-maximal inhibition (IC50) in the assay on A2780cisR came to 579 µM; in [1] it was 92.5 µM; in [2] it was 132 µM; in the assay with A2780, 207 µM; in [3], 127 µM; in assay [4], 13.8 µM. The values for the half-inhibitory concentration (IC50) (in the assay with CAL-27; in assay [5]) were 75.8 µM and 102 µM, respectively.

In the case of `CN(C)c1ccc(C(=O)N(CCCCCC(=O)NO)CC(=O)NC(C)(C)C)cc1`, the half-maximal inhibitory concentration (IC50) in the assay with A2780cisR was 5.18 µM; in assay [1], 1.78 µM; in assay [2] it was 1.97 µM; in the assay with A2780 it was 1.03 µM; in [3], 2.06 µM; in assay [4] it was 2.18 µM. For the same compound, the concentration for half-maximal inhibition (IC50) in the assay on CAL-27 came to 4.04 µM; in assay [5], 2.49 µM.

Turning to `O=C(CCCCCN(C(=O)c1ccccc1)C(C(=O)NC1CCCCC1)c1ccccc1)NO` (configuration not stated), the 50% inhibitory concentration (IC50) worked out at 5.18 µM with A2780cisR; 2.06 µM in assay [1]; 2.65 µM in [2]; 3.87 µM in the assay with A2780; 3.14 µM in [3]; 5.28 µM in assay [4]. The 50% inhibitory concentration (IC50) with CAL-27 was found to be 6.36 µM; in assay [5], 2.92 µM.

Take `Cc1ccc(C(C(=O)NC2CCCCC2)N(CCCCCC(=O)NO)C(=O)c2ccccc2)cc1` (configuration not stated): the half-inhibitory concentration (IC50) with A2780cisR was 4.29 µM; in [1], 2.94 µM; in assay [2] it was 3.22 µM; in the assay on A2780 it was 2.09 µM; in assay [3], 2.81 µM; in assay [4] it was 19 µM. Moreover, the IC50 in the assay on CAL-27 was 4.52 µM; in assay [5] it was 3.63 µM.

As for `Cc1ccc(NC(=O)CN(CCCCCC(=O)NO)C(=O)c2cc(C)cc(C)c2)cc1`, the concentration for half-maximal inhibition (IC50) in the assay with A2780cisR was 2.18 µM; in assay [1], 0.95 µM; in [2] it was 0.8 µM; in the assay with A2780, 1.27 µM; in [3], 1.3 µM; in [4], 2.11 µM. In addition, the IC50 with CAL-27 amounted to 1.67 µM; in assay [5], 0.81 µM.

Turning to `O=C(CCCCCN(CC(=O)NC1CCCCC1)C(=O)c1ccccc1)NO`, the half-maximal inhibitory concentration (IC50) in the assay with A2780cisR is 8.21 µM; in assay [1] it was 1.34 µM; in assay [2] it was 1.08 µM; with A2780, 3.46 µM; in assay [3], 1.66 µM; in assay [4] it was 10.3 µM. Besides, the IC50 in the assay with CAL-27 amounted to 3.8 µM; in [5], 1.13 µM.

As to `CC(C)(C)NC(=O)CN(CCCCCC(=O)NO)C(=O)c1ccccc1`, the concentration for half-maximal inhibition (IC50) with A2780cisR was 42.4 µM; in assay [1] it was 6.85 µM; in assay [2], 4.59 µM; in the assay with A2780, 20.7 µM; in [3], 8.98 µM; in assay [4] it was 19.5 µM. Moreover, the concentration for half-maximal inhibition (IC50) in the assay with CAL-27 is 16.7 µM; in assay [5] it was 9.51 µM.

Turning to `O=C(CCCCCN(CC(=O)NC1CCCCC1)C(=O)c1cccc2ccccc12)NO`, the IC50 in the assay with A2780cisR amounted to 4.12 µM; in assay [1], 0.75 µM; in assay [2], 0.6 µM; with A2780 it was 0.26 µM; in [3], 0.96 µM; in assay [4] it was 5.6 µM. Besides, the 50% inhibitory concentration (IC50) amounted to 2.4 µM in the assay on CAL-27 and 1.29 µM in [5].

`CC(C)CNC(=O)CN(CCCCCC(=O)NO)C(=O)c1ccc(N(C)C)cc1`: the IC50 with A2780cisR is 3.19 µM; in assay [1] it was 0.87 µM; in [2], 0.8 µM; with A2780, 1.9 µM; in assay [3], 1.09 µM; in assay [4] it was 2.11 µM. Further, the IC50 came out at 1.87 µM in the assay on CAL-27 and 0.82 µM in assay [5].

Usually IC50 stands for the concentration needed to halve the response being measured.
